# Results taken from US20160002291A1, “Active Agent Prodrugs with Heterocyclic Linkers” (Signature Therapeutics, Inc., priority 2011, published 2016).
# How the values were obtained:
# [1] = Oral administration of hydrocodone prodrugs co-dosed with Compound 109 to rats (Example 46); conditions: co-dosed PO with KC-40 or KC-50 to rats
# [2] = Oral administration of oxycodone prodrugs co-dosed with trypsin inhibitor Compound 109 to rats (Example 40); assay type: in vivo; conditions: co-dosed PO with KC-12 or KC-17 to rats
# [3] = Spacer leaving group cyclization release rate in pH 7.4 phosphate buffer (Example 39); conditions: 2.18 mM, 50 mM pH 7.4 phosphate buffer, 20° C.
# [4] = Pharmacokinetics following PO administration of Compound KC-55 to rats (Example 48)
# [5] = molecular target: T1, trypsin (Bos taurus, UniProt P00760); assay: In vitro trypsin-mediated cleavage of hydrocodone prodrugs (Example 44); assay type: biochemical, bovine; conditions: conditions as Example 39
# T1 construct: purchased Sigma-Aldrich T8003; host or cells: bovine pancreas
# T1 sequence (P00760 24-246): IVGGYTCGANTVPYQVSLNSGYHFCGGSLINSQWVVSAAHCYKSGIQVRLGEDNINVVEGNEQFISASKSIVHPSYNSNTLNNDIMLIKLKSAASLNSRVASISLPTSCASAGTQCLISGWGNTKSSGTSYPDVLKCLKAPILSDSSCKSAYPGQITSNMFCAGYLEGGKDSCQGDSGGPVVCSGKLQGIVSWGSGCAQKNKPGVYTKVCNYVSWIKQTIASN
# Description: The reactions were conducted at 37° C. for 24 h. Samples were collected at specified time points, transferred into 0.5% formic acid in acetonitrile to stop trypsin activity, and stored at less than −70° C. until analysis by LC-MS/MS.
compound,measurement,setting,value
"N=C(N)c1ccc2cc(OC(=O)c3ccc(N=C(N)N)cc3)ccc2c1 [Compound 109, 6-carbamimidoylnaphthalen-2-yl 4-(diaminomethyleneamino)benzoate]",effect of trypsin inhibitor on release of hydrocodone,[1],attenuate release of hydrocodone by prodrugs of the embodiments
same,effect of trypsin inhibitor on release of oxycodone,[2],attenuate release of oxycodone by prodrugs of the embodiments
"COc1ccc2c3c1O[C@H]1C(OC(=O)N4CCCCC4CN)=CC[C@@]4(O)[C@@H](C2)N(C)CC[C@]314 (single isomer, unassigned; peak b) [KC-11 peak B, N-(oxycodone-6-enol-carbonyl)piperidine-2-methylamine]",half-life (cyclization; compound disappearance),[3],0.876 ± 0.012 h
"COc1ccc2c3c1O[C@H]1C(OC(=O)N4CCCCC4CN)=CC[C@@]4(O)[C@@H](C2)N(C)CC[C@]314 (single isomer, unassigned; peak a) [KC-11 peak A, N-(oxycodone-6-enol-carbonyl)piperidine-2-methylamine]",half-life (cyclization; compound disappearance),[3],1.30 ± 0.038 h
"COc1ccc2c3c1O[C@H]1C(OC(=O)N4CCC(C(=O)O)CC4CNC(=O)[C@H](CCCNC(=N)N)NC(=O)CNC(C)=O)=CC[C@@]4(O)[C@@H](C2)N(C)CC[C@]314 (stereo partly drawn) [Compound KC-55, N-(oxycodone-6-enol-carbonyl)-[(2-methylamino)-piperidine-4-carboxylate]-L-arginine-glycine-acetate]",release of oxycodone on oral administration,[4]; PO to rats,leads to release of oxycodone
"COc1ccc2c3c1O[C@H]1C(=O)CC[C@@]4(O)[C@@H](C2)N(C)CC[C@]314 [Oxycodone, oxycodone, reference compound]",Cmax,"[4]; male, Sprague Dawley, rat, plasma, po, 10 mg/kg",14.7 ± 6.5 ng/mL
N-(hydrocodone-6-enol-carbonyl)-(2-methylamino)piperidine-4-carboxylate]-L-arginine-glycine-acetate [Compound KC-40],HC formation rate,[5],0.003 ± 0.00 μmol/h/BAEE U
